Results from patent US9260473B2, “Bivalent multifunctional ligands targeting Aβ oligomers as treatment for Alzheimer's disease” (Virginia Commonwealth University, priority 2010, dated 2016).

What was measured:
Aβ42 oligomers = target: T1, Aβ42 oligomers (Homo sapiens, UniProt P05067); test: Fluorescence polarization binding to Aβ42 oligomers; conditions: compound 1 μM, 3 hrs, read-out: apparent binding constant (Kd) for Aβ42 oligomers
T1 construct: The monomers, oligomers and fibrils of Aβ42 were prepared according to established protocols and confirmed by TEM
T1 sequence (P05067 672-713 limits assumed): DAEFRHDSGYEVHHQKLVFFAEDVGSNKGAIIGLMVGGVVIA
Protocol: (§1) FIG. 8A-C. BMAOI 14 binds to Aβ42 monomers, oligomers, and fibrils, but not BSA. A. The monomers, oligomers and fibrils of Aβ42 were prepared according to established protocols and confirmed by TEM; B. Compound 14 (1 μM) was incubated with different forms of Aβ42 at indicated concentrations for 3 hrs. Then, fluorescence polarization change of 14 was recorded and the binding affinity was calculated; C. Compound 14 was incubated with BSA as described in B and the binding affinity was calculated.
(§2) To determine the binding affinity of 14 to Aβ, we evaluated changes in fluorescence polarization values of this probe at different 14:Aβ ratios for monomeric, oligomeric, and fibrillary Aβ species, respectively. Aβ42 is chosen to evaluate the binding of probe as it is the major and most sticky amyloid peptide found in AD plaques.^1 The formation of different Aβ42 species was confirmed by transmission electron microscope (TEM) as shown in FIG. 8A. […] It appears that 14 binds to Aβ42 with micromolar affinity and slightly favors […] fibrils over monomers and oligomers.

[1] = BBB permeability in B6C3F1 mice, brain tissue analysed by HPLC; assay type: in vivo
Protocol: FIG. 10. Compound 14 can cross the blood brain barrier (BBB) of B6C3F1 mice. Compound 14 (10 mg/kg) was given to B6C3F1 female mice (n=3) by i.v. administration through tail-vein. Then the animals were sacrificed at indicated time intervals and the brain tissues were collected and analyzed by HPLC using C18 column.
An appropriate fluorescent probe must cross the BBB and selectively bind to Aβ plaques. […] Here, we further assessed the BBB permeability of 14 using female B6C3F1 mice combined with HPLC analysis. […] The results may indicate that 14 can rapidly cross the BBB and reach the brain tissue and is metabolized in a reasonable time window (˜3 hrs) that allows clinical operation. 14 appears to violate all of the empirical rules of BBB permeability with a molecule weight >1000 Da and being more lipophilic (log P>3). However, we also realize that there are exceptions and that compounds with molecular weight more than 1000 Da can efficiently cross the BBB and reach brain tissue.

Aβ42 monomers = target: T2, Aβ42 monomers (Homo sapiens, UniProt P05067); test: Fluorescence polarization binding to Aβ42 monomers; conditions: compound 1 μM, 3 hrs, read-out: apparent binding constant (Kd) for Aβ42 monomers
T2 construct: The monomers, oligomers and fibrils of Aβ42 were prepared according to established protocols and confirmed by TEM
T2 sequence (P05067 672-713 limits assumed): as above
Protocol: as §1, §2

AβOs = test: Immunocytochemistry assay of AβOs in MC65 cells (A11 antibody); assay type: cell-based, human; conditions: 10 μM, 24 hrs after removal of TC
Protocol: MC65 cells were treated with the indicated compounds (10 μM) immediately after the removal of TC. After 24 hrs, the cells were fixed and immunofluorescently stained for AβOs, CM/LR, and nucleus and imaged with a Leica TCS-SP2 AOBS confocal laser scanning microscope. Five areas were examined.
Immunocytochemistry assay. MC65 cells were plated onto Lab-Tee chamber slides (1×10^4 cells/well). After 24 hrs incubation at 37° C. and 5% CO2, Opti-MEM was added (with or without TC) and followed by test compounds. MC65 cells were incubated for 24 hrs. MC65 cells were rinsed 3× with PBS and incubated with Alexa 488-conjugated CTX-B (10 ug/mL) for 15 min on ice. After rinsing once with ice-cold PBS, cells were fixed for 30 min with 4% paraformaldehyde. MC65 cells were permeabilized for 30 min with 0.1% Triton X 100. Then MC65 cells were stained with A11 rabbit antibody followed by anti-rabbit Alexa 568 (1:500). Finally MC65 cells were treated with DAPI (5 ug/mL) and mounted with Vectashield Mounting Media. Cell fluorescence was analyzed by a Leica TCS-SP2 AOBS confocal laser scanning microscope equipped with blue diode, Argon, and 3 HeNe (lasers as well as a spectrophotometer based detection system with variable detector windows) using excitation lines at 355 nm, 488 nm, and 568 nm for DAPI, Alexa 488-conjugated CTX-B, and Alexa Fluor 568 donkey anti-rabbit IgG. […]

Aβ42 fibrils = target: T3, Aβ42 fibrils (Homo sapiens, UniProt P05067); test: Fluorescence emission before and after mixing with Aβ42 fibrils; assay type: binding; conditions: compound 1 μM
T3 construct: The monomers, oligomers and fibrils of Aβ42 were prepared according to established protocols and confirmed by TEM
T3 sequence (P05067 672-713 limits assumed): as above
Protocol: FIG. 9. Fluorescence emission of 14 (1 μM) before and after mixing with Aβ42 fibrils.
To examine the change of fluorescence properties upon binding to Aβ42, we compared the fluorescence properties of free 14 in aqueous solution to its fluorescence properties in the presence of Aβ42 fibrils as this chemical probe will be used to detect Aβ plaques. […] A blue shift in the emission spectra of 10 nm was also observed upon association with Aβ42 fibrils.

splenocytes = test: Anti-CD3 antibody mediated splenocyte proliferation; assay type: cell-based, B6C3F1 mice; conditions: 10 μM
Protocol: Anti-CD3 antibody mediated splenocyte proliferation. […] The splenocytes (2×10^5/well) were cultured in the microtiter wells coated with anti-CD3 Ab (1 μg/mL; BD PharMingen) in the presence of 1 or 14 (10 μM) at 37° C. in 5% CO2. Prior to harvest on day 3, the cells were pulsed with ^3H-thymidine for 18-24 hours. The incorporation of ^3H-thymidine into the proliferating cells was used as the endpoint of the assay, and the data were expressed as CPM/2×10^5 cells.

NK cells = test: IL-2 augmented natural killer (NK) cell activity; assay type: cell-based, B6C3F1 mice; conditions: 10 μM
Protocol: IL-2 augmented natural killer (NK) cell activity. […] Recombinant IL-2 (Chiron, Emeryville, Calif.) at a volume of 50 μL was added to each well so that the final concentration of IL-2 was 5000 fU/mL. The plates were cultured overnight in the presence of 1 or 14 (10 μM), and then assayed for NK cell activity using ^51Cr-labeled YAC-1 cells as the target cells. The ^51Cr-YAC-1 cells were added to each well of a 96-well plate to obtain E:T ratio of 50:1. […] Following 4 hrs incubation, the plates were centrifuged, and 0.1 mL of the supernatant was removed from each well and the radioactivity counted. The mean percentage of cytotoxicity was determined.

extracellular AβOs = test: ML60 cell assay: ELISA for extracellular AβOs; assay type: cell-based, Chinese hamster; conditions: ML60 cells, 10 μM, 24 hrs
Protocol: Next, another cell line, ML60, was employed to evaluate the inhibition of AβOs production.
ML60 cell assay. Sandwich enzyme-linked immunoassays (ELISAs) for extracellular AβOs in ML60 cells were performed. ML60 cells (90% confluent) in 96-well plates were treated with test compounds (10 μM) at 37° C., 5% CO2 for 24 hrs. ML60 cells were centrifuged for 5 min at 6000 g, and supernatant media was collected for AβOs measurement by ELISA. The capture antibody 21F12 (to Aβ residues 33-42) was used for capturing both monomeric and oligomeric Aβ42 species. The detecting antibody was biotinylated 21F12B, and the combination of 21F12 and biotinylated 21F12B allows the detection of only AβOs. The 21F12 mAbs were coated at 10 mg/mL into 96-well immunoassay plates (Costar) at room temperature overnight. The plates were then aspirated and blocked with 0.25% human serum albumin in PBS buffer for 1 hr at room temperature. The plates were rehydrated with wash buffer (0.05% Tween 20 in TBS) before use. The samples were added to the plates and incubated at room temperature for 1 hr. The plates were washed 3× with wash buffer between each step of the assay. […] Reaction product was quantified using plate reader by measuring the difference in absorbance at 450 nm and 650 nm.

MC65 cells = test: Cytotoxicity assay in MC65 cells (MTS, +TC/−TC); assay type: cell-based, human; conditions: 72 hrs
Excerpt: Protective effects of 14 on AβOs-induced cytotoxicity in MC65 cells and differentiated human neuroblastoma SH-SY5Y cells. […] To further verify whether 14 can protect cells from extracellular AβOs-induced cytotoxicity, all trans-retinoic acid differentiated human SH-SY5Y cells were employed. […] This may further indicate that while both 1 and 14 can bind to AβOs, CM/LR anchorage of 14 can increase its accessibility to intracellular target AβOs. Since CM/LR are crucial for many aspects of cell signaling and functions, 14 was further evaluated for its potential cytotoxicity in mouse spleen and natural killer (NK) cells.
Cytotoxicity assay in MC65 cells. MC65 cells were seeded in 96-well plates (4×10^4 cells/well) at 37° C., 5% CO2 for 24 hrs. The medium was removed and washed with PBS twice. Opti-MEM and test compounds were added under +TC and −TC conditions. The plates were incubated at 37° C., 5% CO2 for 72 hrs, then 20 uL CellTiter 96 AQueous One Solution (Promega, Madison, Wis.) were added to each well and the plates were incubated at 37° C., 5% CO2 for 2-4 hrs. The plates were read at 490 nm using FlexStation III plate reader (Molecular Devices). The blank with only test compounds in Opti-MEM was set up as background control for all of the tested concentrations. Each data point was averaged from six replicates and the experiments were independently repeated at least three times.

Q: For COc1cc(C=CC(=O)C(Cc2cn(CCCCCCNC(=O)CCNC(=O)CCNC(=O)COC3CCC4(C)C(=CCC5C4CCC4(C)C(C(C)CCCC(C)C)CCC54)C3)nn2)C(=O)C=Cc2ccc(O)c(OC)c2)ccc1O (centres unmarked) [BMAOI 14], which Kd (Aβ42 oligomers) is on record?
A: 2170 nM

Q: And the “time window until disappearance from brain tissue” value ([1]; 10 mg/kg i.v.)?
A: ~3 h

Q: And the “earliest time detected in brain tissue” value ([1]; 10 mg/kg i.v. tail-vein, female B6C3F1 mice)?
A: 10 min

Q: What about the “duration of presence in brain tissue” value ([1]; 10 mg/kg i.v., evident at 60 and 120 minutes) of the same compound?
A: more than two hours

Q: And the Kd (Aβ42 monomers)?
A: 2030 nM

Q: And the “formation of AβOs (A11 immunocytochemistry)” value (AβOs)?
A: significantly inhibited

Q: And the “increase of emission intensity upon binding to Aβ42 fibrils” value (Aβ42 fibrils; Aβ42=5 μM, excitation 430 nm)?
A: 4.5 fold

Q: What about the “blue shift in the emission spectra upon association with Aβ42 fibrils” value (Aβ42 fibrils) of the same compound?
A: 10 nm

Q: And the “cytotoxic effects in mouse spleen cells” value (splenocytes)?
A: minimal cytotoxic effects

Q: What about the “cytotoxic effects in NK cells” value (NK cells) of the same compound?
A: no cytotoxic effects

Q: And the “production of extracellular AβOs (ELISA)” value (extracellular AβOs)?
A: inhibited the production of extracellular AβOs

Q: And the “toxic effects on MC65 cell viability in the presence of TC” value (MC65 cells; +TC, tested concentrations, MTS)?
A: no toxic effects

Q: And the “rescue of MC65 cell viability upon removal of TC” value (MC65 cells; −TC, 16 μM)?
A: nearly full rescue

Q: And the “protective effects on MC65 cell viability upon removal of TC” value (MC65 cells; −TC, MTS)?
A: protected MC65 cell survival in a dose-dependent manner
